Patent US20130217132A1, “METHODS, COMPOSITIONS AND USE FOR ENHANCING CHEMICAL TOLERANCE BY MICROORGANISMS” (priority 2009, published 2013)
Values after ≈ are worked out from the molar mass of the structure shown. Like-named read-outs stand apart in the source and are kept apart here.

Experiments:
ADH = settings: 0.12 g/L furfural; cited from earlier work
[1] = tested on: BW25113 araC::FRT-kan clone (JW0063); test: Cell growth (OD600) in MOPS minimal media with furfural, araC knockout; format: cell-based, E. coli; settings: furfural 1 g/L
Experimental: In other exemplary methods, tolerance and expression of LPS was restored in a microorganism. FIG. 19 represents an example of restoration of tolerance and LPS expression in BW25113 ArecA clone. The indicated cells were grown in MOPS minimal media supplemented with glucose as a carbon source. Furfural was added to the media at the concentration of 1 g/L. Arabinose was added at 10 mM where indicated to gauge effect of AraC binding. The BW25113 araC::FRT-kan clone corresponds to JW0063, a BW25113 araC knockout mutant ordered from the Keio Collection directly. pBTL-1 represented the blank vector, and pLPCA referred to lpcA gene overexpression. Consistent with the Examples above, overexpression of lpcA gene increased cell growth (OD600 of 0.1 vs. 0.05) in the presence of furfural. Addition of Arabinose to the lpcA gene overexpression cells could further enhance the effect (OD600 of 0.3). […] To analyze the LPS level in the cells indicated in FIG. 19, LPS are extracted from the cells grown to exponential phase. Loading of LPS for the protein gel is normalized to the cell number. The gel is stained to visualize LPS protein bands after desired separation is obtained.
BW25113, MG1655, and derivatives were used where indicated. JW0063, an araC mutant of BW25113 was obtained from the Coli Genetic Stock Center (Yale). Overnight bacterial cultures were grown in Luria-Bertani medium with shaking. […]

[2] = tested on: aldehyde dehydrogenase (A1DH; EC 1.2.1.5); settings: 0.12 g/L furfural; cited from earlier work
[3] = tested on: BW25113 ArecA transformed with the blank vector (pBTL-1); test: MIC assay of furfural, blank vector strain; format: cell-based, E. coli; settings: for MIC of furfural: blank vector, FIG. 18B
Experimental: In one exemplary method, assays were performed to determine minimum inhibitory concentration (MIC) of ethanol, furfural and acetate for BW25113 and MG1655 E. coli strains. […] Cells from each strain were inoculated from the same optical density into a total of 100 μL of varying furfural concentrations in a minimal media, for example using MOPS. Cell growth in the first 24 hr or 48 hr in the presence of furfural was monitored. The left bar in each pair for each indicated strain represents a first concentration of furfural that inhibited bacterial growth after 24 hr. The right bar for each strain represents the first concentration that inhibited growth after 48 hr. The MIC reads were the average of triplicates (n=3), and error bars represent standard deviation. […] ArecA signifies strains where the gene has been knocked out as previously described.
The minimum inhibitory concentration (MIC) of furfural of MG1655 and BW25113 with or without lpcA overexpression was determined. MIC assays were performed as described in Example 13. […] MIC reads were average of triplicates (n=3), and error bars represent standard deviation. The SDS-PAGE gel image in FIG. 17C represents LPS level of the cells indicated above the gel image (duplicate of each cell sample was presented). LPS was extracted from the indicated cells grown to exponential phase. Loading of LPS the SDS-PAGE gel was normalized to the cell number. The gel was stained for visualization after desired separation of LPS was obtained.
In another exemplary method, MIC was determined when MG1655 and BW25113 strains were fed with various carbon sources. MIC assays were performed in the presence of furfural. Glucose, Xylose or Ribose was supplemented with a minimal media for cell growth. […] MICs were read at the indicated time (24 hr or 48 hr), the average of triplicates was presented and error bars represent standard deviation. ‘Blank vector’ refers to the pBTL-1 vector, which served as the control. […]

[4] = furfural vs. furfuryl alcohol; cited from earlier work
BW25113 E. coli strain = test: Minimum inhibitory concentration (MIC) assay of furfural in MOPS minimal media; format: cell-based; settings: Escherichia coli, n=3, read-out: MIC (first concentration of furfural that inhibited bacterial growth)
Experimental: In one exemplary method, assays were performed to determine minimum inhibitory concentration (MIC) of ethanol, furfural and acetate for BW25113 and MG1655 E. coli strains. FIG. 16 represents a histogram plot of illustrating tolerance differences of furfural in BW25113 and MG1655 E. coli strains. Cells from each strain were inoculated from the same optical density into a total of 100 μL of varying furfural concentrations in a minimal media, for example using MOPS. Cell growth in the first 24 hr or 48 hr in the presence of furfural was monitored. The left bar in each pair for each indicated strain represents a first concentration of furfural that inhibited bacterial growth after 24 hr. The right bar for each strain represents the first concentration that inhibited growth after 48 hr. The MIC reads were the average of triplicates (n=3), and error bars represent standard deviation. […] Thus, this difference in strains led to further investigation into the difference between these strains. ArecA signifies strains where the gene has been knocked out as previously described.

pBTL-1 lpcA culture = format: cell-based, E. coli; settings: aerobic growth in 1 g/L furfural
Experimental: Certain experiments described herein were performed in E. coli BW25113 recA-, with the kanamycin resistance gene removed.
Cultures were grown in 10 ml MOPS minimal media, 100 μg carbenicillin/ml, and either 1 g furfural/1 supplemented, 2 g HMF/1, or 4 g acetate/1, in 15 ml conical tubes at 37° C. The optical density of 1 ml culture was measured with a spectrophotometer at 600 nm. A natural log transformation of the data was then calculated and then a regression line was fit to the data to calculate specific growth, which is […] to the culture doubling time. The blank vector, pBTL-1, served as the control. The lpcA gene was cloned into the pBTL-1 using standard cloning techniques and primers designed to amplify the gene from template DNA.

Which activity inhibited (ADH) does the source give for `O=Cc1ccco1` [furfural, furan-2-carbaldehyde] here?
Its activity inhibited is 60%.

And the “OD600 (cell growth in the presence of furfural)” value ([1]; araC::FRT-kan without lpcA overexpression, no Arabinose)?
The value was 0.5.

And the “OD600 (cell growth in the presence of furfural)” value ([1]; araC::FRT-kan, Arabinose 10 mM)?
Its value is 1.0.

What about the activity reduction [2] of the same compound?
The activity reduction was “more than 80%”.

And the MIC ([3]; Escherichia coli, BW25113, read-out: MIC of furfural)?
Its MIC is 500 µg/mL.

And the MIC of furfural ([3]; glucose as carbon source)?
The MIC of furfural was 500 µg/mL.

What about the MIC of furfural ([3]; xylose as carbon source) of the same compound?
Its MIC of furfural is 500 µg/mL.

And the “toxicity on a concentration basis” value [4]?
The value was about 2 g/L.

What about the MIC (BW25113 E. coli strain; BW25113, after 24 hr) of the same compound?
The MIC was 500 µg/mL (≈ 5.2 mM).

And the MIC (BW25113 E. coli strain; BW25113, after 48 hr)?
Its MIC is 1200 µg/mL (≈ 12.5 mM).

And the “Final OD600 (24 hr)” value (pBTL-1 lpcA culture)?
Its value is 0.918.

And the “Specific Growth” value (pBTL-1 lpcA culture; n=3)?
The value was 0.153 h⁻¹.
